In brackets after ≈: the same amount, converted by molar mass.
Tests used:
Typhlodromus pyri = assay: LR50; higher = less toxic; settings: not reported; mortality
Canidae = settings: oral, Dog Other, body weight
Anas platyrhynchos = settings: oral; for LD50: mortality
Mus musculus = settings: acute; mortality
Tagia sp. = settings: acute; duration: 14 days; mortality
Coturnix japonica = settings: reproduction developmental
Daphnia magna = settings: chronic/long-term; duration: 21 days; reproduction
Colinus virginianus = settings: oral; for LD50: mortality
Apis mellifera = settings: acute, mortality
[1] = short-term, duration: 5 days, feed

COc1cc(OC)nc(NC(=O)NS(=O)(=O)c2ncccc2C(=O)N(C)C)n1 [Nicosulfuron]
LR50 (Typhlodromus pyri): 60 g/ha
LD50 (Rattus norvegicus; acute, mortality): > 5000 mg/kg-day
NOAEL (Rattus norvegicus; chronic, duration: 2 years, hematological): 199 mg/kg-day
NOAEL (Rattus norvegicus; reproduction developmental, M): 3860 mg/kg-day
NOAEL (Rattus norvegicus; reproduction developmental, mortality): 4400 mg/kg-day
NOAEL (Canidae; chronic, duration: 1 years): 200 mg/kg-day
NOAEL (Canidae; short-term, duration: 28 days): 200 mg/kg-day
NOAEL (Canidae; subchronic, duration: 90 days): 200 mg/kg-day
NOEL (Anas platyrhynchos; acute, unspecified): 2000 mg/kg-day
LD50 (Anas platyrhynchos; acute, unspecified): > 2000 mg/kg-day
NOEL (Anas platyrhynchos; [1]): 911 mg/kg-day
LD50 (Anas platyrhynchos; [1]): > 911 mg/kg-day
LD50 (Mus musculus): > 5000 mg/kg-day
LC50 (Tagia sp.): > 1000 mg/kg
NOEC (Coturnix japonica): 171 mg/kg-day
NOEC (Daphnia magna): 5.2 mg/L
LD50 (Colinus virginianus; acute, duration: 5 days, diet): > 1600 mg/kg-day
NOEL (Colinus virginianus; acute): 2000 mg/kg-day
LD50 (Colinus virginianus; acute): > 2000 mg/kg-day
NOEL (Colinus virginianus; short-term, duration: 5 days, diet): 1600 mg/kg-day
LD50 (Apis mellifera; dermal): 76 µg/piece
LC50 (Apis mellifera; oral, feed): > 1000 µg/piece
LC50 (Oncorhynchus mykiss; acute, duration: 96 hours, mortality): 65.7 mg/L (≈ 160 µM)
NOEC (Oncorhynchus mykiss; chronic/long-term, duration: 28 days, growth): 10 mg/L
